Measurements taken from PubChem BioAssay (NCI).
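Growth conditions: 96-well plates. Treatment: test compound, 48 hours, 5 concentrations. Analysis: linear interpolation between bracketing concentrations; unreached endpoints set to highest concentration. At the GI50, growth is halved. The concentration for full growth arrest is given as TGI.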

Assays:
Assay in all cases: NCI-60 cell line screen, 48 h
MCF7 breast = test system: MCF7 breast
NCI-H23 lung = test system: NCI-H23 lung
SF-295 CNS = test system: SF-295 CNS
PC-3 prostate = test system: PC-3 prostate
T-47D breast = test system: T-47D breast
OVCAR-4 ovarian = test system: OVCAR-4 ovarian
HS 578T breast = test system: HS 578T breast
MDA-MB-435 = test system: MDA-MB-435
OVCAR-5 ovarian = test system: OVCAR-5 ovarian
UACC-62 melanoma = test system: UACC-62 melanoma
SNB-75 CNS = test system: SNB-75 CNS
RXF 393 renal = test system: RXF 393 renal
COLO 205 colon = test system: COLO 205 colon
SF-268 CNS = test system: SF-268 CNS
SK-OV-3 ovarian = test system: SK-OV-3 ovarian
SN12C renal = test system: SN12C renal
SW-620 colon = test system: SW-620 colon
MDA-MB-468 breast = test system: MDA-MB-468 breast
DU-145 prostate = test system: DU-145 prostate
MOLT-4 leukemia = test system: MOLT-4 leukemia
RPMI-8226 leukemia = test system: RPMI-8226 leukemia
A498 renal = test system: A498 renal
UO-31 renal = test system: UO-31 renal
HT29 colon = test system: HT29 colon
K-562 leukemia = test system: K-562 leukemia
BT-549 breast = test system: BT-549 breast
U251 CNS = test system: U251 CNS
IGROV1 ovarian = test system: IGROV1 ovarian
CAKI-1 renal = test system: CAKI-1 renal
TK-10 renal = test system: TK-10 renal
NCI-H226 lung = test system: NCI-H226 lung
CCRF-CEM leukemia = test system: CCRF-CEM leukemia
HL-60(TB) leukemia = test system: HL-60(TB) leukemia
A549 NSCLC = test system: A549 NSCLC
OVCAR-8 ovarian = test system: OVCAR-8 ovarian
SK-MEL-5 melanoma = test system: SK-MEL-5 melanoma
NCI-H460 lung = test system: NCI-H460 lung
MDA-MB-231 breast = test system: MDA-MB-231 breast
SF-539 CNS = test system: SF-539 CNS
ACHN renal = test system: ACHN renal
SK-MEL-28 melanoma = test system: SK-MEL-28 melanoma
SNB-19 CNS = test system: SNB-19 CNS
MALME-3M melanoma = test system: MALME-3M melanoma
HCT-116 colon = test system: HCT-116 colon
786-0 renal = test system: 786-0 renal
HOP-92 NSCLC = test system: HOP-92 NSCLC
SK-MEL-2 melanoma = test system: SK-MEL-2 melanoma
HCT-15 colon = test system: HCT-15 colon
KM12 colon = test system: KM12 colon
UACC-257 melanoma = test system: UACC-257 melanoma
M14 melanoma = test system: M14 melanoma
HCC-2998 colon = test system: HCC-2998 colon
NCI-H522 lung = test system: NCI-H522 lung
OVCAR-3 ovarian = test system: OVCAR-3 ovarian
HOP-62 NSCLC = test system: HOP-62 NSCLC
SR leukemia = test system: SR leukemia
EKVX NSCLC = test system: EKVX NSCLC
LOX IMVI melanoma = test system: LOX IMVI melanoma

COc1ccc(-c2ccnc(SCc3cc4cc(Cl)ccc4[nH]c3=O)n2)cc1
GI50 (MCF7 breast): 8.74 µM | TGI (MCF7 breast): 58.1 µM | GI50 (NCI-H23 lung): 13.7 µM | TGI (NCI-H23 lung): 45.1 µM | GI50 (SF-295 CNS): 5.49 µM | TGI (SF-295 CNS): 26.8 µM | GI50 (PC-3 prostate): 6.9 µM | TGI (PC-3 prostate): 45.7 µM | GI50 (T-47D breast): 19.7 µM | TGI (T-47D breast): > 100 µM | GI50 (OVCAR-4 ovarian): 3.85 µM | TGI (OVCAR-4 ovarian): 24.5 µM | GI50 (HS 578T breast): 2.77 µM | TGI (HS 578T breast): 9.75 µM | GI50 (MDA-MB-435): 14.4 µM | TGI (MDA-MB-435): > 100 µM | GI50 (OVCAR-5 ovarian): 21 µM | TGI (OVCAR-5 ovarian): 85.8 µM | GI50 (UACC-62 melanoma): 14.8 µM | TGI (UACC-62 melanoma): 53.2 µM | GI50 (SNB-75 CNS): 1.69 µM | TGI (SNB-75 CNS): 3.98 µM | GI50 (RXF 393 renal): 2.27 µM | TGI (RXF 393 renal): 8.31 µM | GI50 (COLO 205 colon): 44.8 µM | TGI (COLO 205 colon): > 100 µM | GI50 (SF-268 CNS): 3.41 µM | TGI (SF-268 CNS): 20.4 µM | GI50 (SK-OV-3 ovarian): 4.97 µM | TGI (SK-OV-3 ovarian): 21.2 µM | GI50 (SN12C renal): 11.6 µM | TGI (SN12C renal): > 100 µM | GI50 (SW-620 colon): 26.2 µM | TGI (SW-620 colon): > 100 µM | GI50 (MDA-MB-468 breast): 5.59 µM | TGI (MDA-MB-468 breast): 35.9 µM | GI50 (DU-145 prostate): 10.2 µM | TGI (DU-145 prostate): 24.2 µM | GI50 (MOLT-4 leukemia): 38.6 µM | TGI (MOLT-4 leukemia): > 100 µM | GI50 (RPMI-8226 leukemia): 16.8 µM | TGI (RPMI-8226 leukemia): > 100 µM | GI50 (A498 renal): 17.5 µM | TGI (A498 renal): 46.2 µM | GI50 (UO-31 renal): 14.5 µM | TGI (UO-31 renal): 54.4 µM | GI50 (HT29 colon): 53.6 µM | TGI (HT29 colon): > 100 µM | GI50 (K-562 leukemia): 31.2 µM | TGI (K-562 leukemia): > 100 µM | GI50 (BT-549 breast): 6.21 µM | TGI (BT-549 breast): 33.2 µM | GI50 (U251 CNS): 13.5 µM | TGI (U251 CNS): 46.6 µM | GI50 (IGROV1 ovarian): 27.1 µM | TGI (IGROV1 ovarian): > 100 µM | GI50 (CAKI-1 renal): 7.7 µM | TGI (CAKI-1 renal): 27.1 µM | GI50 (TK-10 renal): 26.3 µM | TGI (TK-10 renal): 90 µM | GI50 (NCI-H226 lung): 2.96 µM | TGI (NCI-H226 lung): 10.4 µM | GI50 (CCRF-CEM leukemia): 16 µM | TGI (CCRF-CEM leukemia): > 100 µM | GI50 (HL-60(TB) leukemia): > 100 µM | TGI (HL-60(TB) leukemia): > 100 µM | GI50 (A549 NSCLC): 15.6 µM | TGI (A549 NSCLC): > 100 µM | GI50 (OVCAR-8 ovarian): 4.9 µM | TGI (OVCAR-8 ovarian): > 100 µM | GI50 (SK-MEL-5 melanoma): 14.2 µM | TGI (SK-MEL-5 melanoma): 71.6 µM | GI50 (NCI-H460 lung): 5.63 µM | TGI (NCI-H460 lung): 58.7 µM | GI50 (MDA-MB-231 breast): 9.03 µM | TGI (MDA-MB-231 breast): 32.2 µM | GI50 (SF-539 CNS): 3.16 µM | TGI (SF-539 CNS): 14.8 µM | GI50 (ACHN renal): 5.64 µM | TGI (ACHN renal): 19.8 µM | GI50 (SK-MEL-28 melanoma): 7.39 µM | TGI (SK-MEL-28 melanoma): 31.6 µM | GI50 (SNB-19 CNS): 3.7 µM | TGI (SNB-19 CNS): 28.6 µM | GI50 (MALME-3M melanoma): 4.72 µM | TGI (MALME-3M melanoma): 27.4 µM | GI50 (HCT-116 colon): 14 µM | TGI (HCT-116 colon): > 100 µM | GI50 (786-0 renal): 15.1 µM | TGI (786-0 renal): 36.5 µM | GI50 (HOP-92 NSCLC): 5.49 µM | TGI (HOP-92 NSCLC): 39.8 µM | GI50 (SK-MEL-2 melanoma): 14.6 µM | TGI (SK-MEL-2 melanoma): 39.2 µM | GI50 (HCT-15 colon): 29 µM | TGI (HCT-15 colon): > 100 µM | GI50 (KM12 colon): 19.9 µM | TGI (KM12 colon): > 100 µM | GI50 (UACC-257 melanoma): 16.4 µM | TGI (UACC-257 melanoma): 82 µM | GI50 (M14 melanoma): 25 µM | TGI (M14 melanoma): > 100 µM | GI50 (HCC-2998 colon): 27.6 µM | TGI (HCC-2998 colon): > 100 µM | GI50 (NCI-H522 lung): 5.18 µM | TGI (NCI-H522 lung): 32.4 µM | GI50 (OVCAR-3 ovarian): 9.93 µM | TGI (OVCAR-3 ovarian): 27.2 µM | GI50 (HOP-62 NSCLC): 3.45 µM | TGI (HOP-62 NSCLC): 16.6 µM | GI50 (SR leukemia): 21.6 µM | TGI (SR leukemia): > 100 µM | GI50 (EKVX NSCLC): 12.2 µM | TGI (EKVX NSCLC): 64.9 µM | GI50 (LOX IMVI melanoma): 15 µM | TGI (LOX IMVI melanoma): > 100 µM
